Literature values in US20110092535A1, “Novel Epilepsy Treatment” (priority 2006, published 2011).
Where two headings read alike, the source gives them in different places.

Tested on: maximal electric shock-induced seizures
Conditions: rats

For `Cc1nccn1CC1CCc2c(c3ccccc3n2C)C1=O` (centres unmarked) [Ondansetron], the “effect against maximal electric shock-induced seizures” value (higher doses (>2 mg/kg)) is listed as “ineffective” and the “effect against maximal electric shock-induced seizures” value (low doses) is listed as “effective”.
